One series concerns the target T1, human PPAR alpha (Homo sapiens, UniProt Q07869).
T1 construct: expressed in transfected cells; host or cells: CV-1 cells
T1 sequence (Q07869 239-466 limits assumed): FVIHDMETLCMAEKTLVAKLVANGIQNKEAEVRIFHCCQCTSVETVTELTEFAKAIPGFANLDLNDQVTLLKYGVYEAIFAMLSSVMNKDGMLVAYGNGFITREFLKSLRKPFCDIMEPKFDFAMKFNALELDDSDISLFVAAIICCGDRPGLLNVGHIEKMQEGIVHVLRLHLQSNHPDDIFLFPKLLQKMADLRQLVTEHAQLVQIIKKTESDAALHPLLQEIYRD
The experiment in a line: Transient transfection (transactivation) assay in CV-1 cells, hPPAR alpha. It is filed as cell-based. Particulars: PPAR transactivation activity, GAL4 chimera, concentration giving 50% of maximum activity, read-out: human αEC50. The source says:
(§1) Compounds were screened for functional potency in transient transfection assays in CV-1 cells for their ability to activate the PPAR subtypes (transactivation assay). A previously established chimeric receptor system was utilized to allow comparison of the relative transcriptional activity of the receptor subtypes on the same target gene and to prevent endogenous receptor activation from complicating the interpretation of results. See, for example, Lehmann, J. M.; Moore, L. B.; Smith-Oliver, T. A.; Wilkison, W. O.; Willson, T. M.; Kliewer, S. A., An antidiabetic thiazolidinedione is a high affinity ligand for peroxisome proliferator-activated receptor γ (PPARγ), J. Biol. Chem., 1995, 270, 12953–6. The ligand binding domains for murine and human PPAR alpha, PPAR gamma, and PPAR delta were each fused to the yeast transcription factor GAL4 DNA binding domain. CV-1 cells were transiently transfected with expression vectors for the respective PPAR chimera along with a reporter construct containing five copies of the GAL4 DNA binding site driving expression of secreted placental alkaline phosphatase (SPAP) and β-galactosidase. After 16 h, the medium was exchanged to DME medium supplemented with 10% delipidated fetal calf serum and the test compound at the appropriate concentration. After an additional 24 h, cell extracts were prepared and assayed for alkaline phosphatase and β-galactosidase activity. Alkaline phosphatase activity was corrected for transfection efficiency using the β-galactosidase activity as an internal standard (see, for example, Kliewer, S. A., et. al. Cell 83, 813–819 (1995)). Rosiglitazone (BRL 49653) was used as a positive control in the hPPAR gamma assay. The positive control in the hPPAR alpha assays was 2-methyl-2-[4-{[(4-methyl-2-[4-trifluoromethylphenyl]-thiazol-5-yl-carbonyl)amino]methyl}-phenoxy]propionic acid. The positive control for PPAR delta assays was 2-{2-methyl-4-[({4-methyl-2-{trifluoromethyl)phenyl]-1,3-thiazol-5-yl}methyl)sulfanyl]phenoxy}acetic acid.

A further series concerns the target T2, human PPAR gamma (Homo sapiens, UniProt P37231).
T2 construct: expressed in transfected cells; host or cells: CV-1 cells
T2 sequence (P37231 238-503 limits assumed): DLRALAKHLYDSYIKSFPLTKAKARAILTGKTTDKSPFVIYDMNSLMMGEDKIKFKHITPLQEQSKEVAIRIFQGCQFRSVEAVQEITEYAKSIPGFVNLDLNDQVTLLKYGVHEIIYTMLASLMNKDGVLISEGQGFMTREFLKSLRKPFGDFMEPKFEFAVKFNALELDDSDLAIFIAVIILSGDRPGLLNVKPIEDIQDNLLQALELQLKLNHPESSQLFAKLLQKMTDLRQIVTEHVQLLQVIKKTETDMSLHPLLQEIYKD
The experiment in a line: Transient transfection (transactivation) assay in CV-1 cells, hPPAR gamma. It is filed as cell-based. Conditions: PPAR transactivation activity, GAL4 chimera, concentration giving 50% of maximum activity, read-out: human γEC50.
Source text: as §1

The target in the next series is T3, human PPAR delta (Homo sapiens, UniProt Q03181).
T3 construct: expressed in transfected cells; host or cells: CV-1 cells
T3 sequence (Q03181 211-439 limits assumed): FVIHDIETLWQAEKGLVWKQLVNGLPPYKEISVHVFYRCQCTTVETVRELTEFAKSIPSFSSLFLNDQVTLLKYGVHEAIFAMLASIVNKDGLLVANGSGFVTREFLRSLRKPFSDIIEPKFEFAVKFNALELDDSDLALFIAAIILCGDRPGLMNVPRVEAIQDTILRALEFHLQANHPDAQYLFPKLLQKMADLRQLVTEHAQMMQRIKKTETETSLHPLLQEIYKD
Put plainly: Transient transfection (transactivation) assay in CV-1 cells, hPPAR delta. It is filed as cell-based. Conditions: PPAR transactivation activity, GAL4 chimera, concentration giving 50% of maximum activity, read-out: human δEC50.
Source text: as §1

For orientation: melting point means the temperature, or range, at which the solid turns liquid. The compound `CC(C)c1ccc(-c2noc(COc3ccc(OC(C)(C)C(=O)O)cc3)n2)cc1` [Example 14] returned a melting point of 117 °C. Further, on human PPAR alpha, the EC50 is 77 nM. Also, the EC50 at human PPAR gamma was found to be 10000 nM.
For `CC(C)(Oc1ccc(OCc2noc(-c3ccc(C(C)(C)C)cc3)n2)cc1)C(=O)O` [Example 17, 2-methyl-2-{4-[5-(4-tert-butyl-phenyl)-[1,2,4]oxadiazol-3-ylmethoxy]-phenoxy}propionic acid], the results for the EC50 at human PPAR alpha and on human PPAR gamma were 40 nM and 10000 nM, respectively.
`Cc1cc(OCc2nc(-c3ccc(C(C)C)cc3)no2)ccc1OC(C)(C)C(=O)O` [Example 11] had a melting point of 138 °C. Besides, on human PPAR alpha, the EC50 came to 59 nM. Also, the EC50 at human PPAR delta stood at 9310 nM. Besides, the EC50 on human PPAR gamma stood at 10000 nM.
Regarding `CC(C)c1ccc(-c2nc(COc3ccc(OC(C)(C)C(=O)O)cc3)no2)cc1` [Example 16, 2-methyl-2-{4-[5-(4-isopropyl-phenyl)-[1,2,4]oxadiazol-3-ylmethoxy]-phenoxy}propionic acid], the EC50 amounted to 29 nM at human PPAR alpha, 8400 nM on human PPAR delta and 10000 nM at human PPAR gamma.
With `CC(C)(Oc1ccc(OCc2nc(-c3ccc(C(F)(F)F)cc3)no2)cc1)C(=O)O` [Example 15, 2-methyl-2-{4-[3-(4-trifluoromethyl-phenyl)-[1,2,4]oxadiazol-5-ylmethoxy]-phenoxy}-propionic acid], the melting point stood at 164 °C. Besides, at human PPAR alpha, the EC50 was found to be 98 nM. In addition, the EC50 at human PPAR delta is 4510 nM. The EC50 on human PPAR gamma is 10000 nM.
Take `Cc1cc(OCc2nc(-c3ccc(C(C)(C)C)cc3)no2)ccc1OC(C)(C)C(=O)O` [Example 10, 2-methyl-2-[4-(3-(4-tert-butyl-phenyl)-[1,2,4]oxadiazol-5-ylmethoxy]-2-methyl-phenoxy]-propionic acid]: the melting point lay in the range of 155 to 157 °C. Also, the EC50 on human PPAR alpha stood at 24 nM. For the same compound, at human PPAR gamma, the EC50 was determined as 11400 nM.
In the case of `Cc1cc(OCc2nc(-c3ccc(C(F)(F)F)cc3)no2)ccc1OC(C)(C)C(=O)O` [Example 12, 2-methyl-2-{4-[3-(4-trifluoromethyl-phenyl)-[1,2,4]oxadiazol-5-ylmethoxy]-2-methyl-phenoxy}-propionic acid], the melting point was 170 °C. In addition, on human PPAR alpha, the EC50 stood at 36 nM. For the same compound, the EC50 on human PPAR delta came to 311 nM. Besides, the EC50 at human PPAR gamma was 4300 nM.
`CC(C)(Oc1ccc(OCc2nc(-c3ccc(C(C)(C)C)cc3)no2)cc1)C(=O)O` [Example 13, 2-methyl-2-[4-(3-(4-tert-butyl-phenyl)-[1,2,4]oxadiazol-5-ylmethoxy]-phenoxy]-propionic acid] returned a melting point of 138 to 140 °C. The EC50 on human PPAR alpha worked out at 92 nM. Moreover, on human PPAR gamma, the EC50 was 850 nM.

(Values after patent publication US7141591B2, “1,2,4-oxadiazole derivatives as hPPAR alpha agonists” (SmithKline Beecham Corporation, priority 2000, dated 2006).)
